Oligonucleotides are written 5' to 3', each unit as a sugar letter and its base; * is a phosphorothioate linkage, no mark a phosphodiester; rarer units and linkages stand in square brackets, end groups in braces. Plain capitals give the bases only. e = 2'-O-(2-methoxyethyl) (MOE); l = locked nucleic acid (LNA); [5mC] = 5-methylcytosine; d = 2'-deoxy (DNA)
Assays:
mGrn mRNA = mGrn mRNA qPCR in Neuro2a cells transfected with ASOs; format: cell-based, mouse; settings: Table 14; Neuro2a, 100 nM, 48 hours; normalized to sNTC3
Description: 57 ASOs targeting the Grn promoter (− strand) were screened in Neuro2a cells. Neuro2a cells were transfected with 100 nM of each of the ASOs listed in Table 14 and cells were harvested 48 hours later for Grn mRNA quantification using qPCR. Housekeeping genes for normalization were Gapdh and Ppia. Relative Grn mRNA levels were normalized to mRNA extracted from cells treated with sNTC3 (steric nontargeting control).
Next, 26 ASOs based on parent ASOs CO-3544 and CO-3595 were designed with different modifications and base walking. Neuro2a cells were transfected with either […] or 160 nM of each of the ASOs listed in Table 15, and cells were harvested 48 hours later for mGrn mRNA quantification using qPCR. As controls, cells were treated with sNTC3 or no ASO. Housekeeping genes for normalization were Gapdh and Ppia. Relative Grn mRNA levels were normalized to mRNA extracted from cells treated with sNTC3.
CO-3544 was modified to include PO/PS bonds and the efficacy in upregulating mGrn mRNA was determined.
Similarly, CO-3595 was modified to include varying PO/PS internucleotide bonds and the efficacy of these ASOs in upregulating mGrn mRNA was determined in Neuro2A cells.

GRN mRNA = GRN mRNA qPCR in SK-N-AS cells transfected with ASOs; format: cell-based, human; settings: for hGRN mRNA FC: Table 11, 48 hours; for hGRN mRNA FC / 30 nM FC (GRN mRNA) / 60 nM FC (GRN mRNA) / 120 nM FC (GRN mRNA): SK-N-AS, normalized to CO-1589; for hGRN mRNA FC / 120 nM FC (GRN mRNA): 120 nM; for 30 nM FC (GRN mRNA) / 60 nM FC (GRN mRNA) / 120 nM FC (GRN mRNA): Table 12
Summary of the method: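 Fold change in GRN mRNA, by qPCR with GAPDH/PPIA housekeeping normalization, referenced to steric non-targeting control ASO(s) such as CO-1589. ASOs were transfected into SK-N-AS neuroblastoma cells in dose titrations (20 to 160 nM initially). Cells were harvested 48 hours post-transfection.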

Substance	hGRN mRNA FC (GRN mRNA) [FC]	30 nM FC (GRN mRNA) (GRN mRNA) [FC]	60 nM FC (GRN mRNA) (GRN mRNA) [FC]	120 nM FC (GRN mRNA) (GRN mRNA) [FC]	also measured
CO-3545: ASO targeting the Grn promoter (− strand) (antisense e[5mC]*eT*eA*eG*eT*eG*eG*eA*eA*eG*eA*eT*eG*eT*e[5mC]*eG*eG*eA*eG*e[5mC])	–	–	–	–	mGRN mRNA FC (mGrn mRNA): 1.7 FC
CO-3546: ASO targeting the Grn promoter (− strand) (antisense eG*eA*eA*eA*eT*eT*e[5mC]*eA*eT*eT*eT*e[5mC]*e[5mC]*e[5mC]*e[5mC]*eT*e[5mC]*eG*eA*e[5mC])	–	–	–	–	mGRN mRNA FC (mGrn mRNA): 1.4 FC
CO-3547: ASO targeting the Grn promoter (− strand) (antisense eA*eT*e[5mC]*eT*eG*eG*eA*eT*eT*eG*eG*e[5mC]*eT*e[5mC]*eA*e[5mC]*e[5mC]*eT*eT*eT)	–	–	–	–	mGRN mRNA FC (mGrn mRNA): 1.7 FC
CO-6439: ASO designed to target an intragenic enhancer RNA (eRNA) (eG*e[5mC]*eT*e[5mC]*e[5mC]*e[5mC]*eT*eG*eT*eG*eT*eG*e[5mC]*eT*eA*e[5mC]*eT*eG*eA*eG)	1.1	–	–	–	–
CO-6440: ASO designed to target an intragenic enhancer RNA (eRNA) (eG*eT*eT*e[5mC]*eA*eT*eG*e[5mC]*eT*eA*e[5mC]*e[5mC]*e[5mC]*e[5mC]*e[5mC]*eT*eA*eG*eT*eG)	1.0	–	–	–	–
CO-6441: ASO designed to target an intragenic enhancer RNA (eRNA) (eG*eG*e[5mC]*eT*eG*eA*eT*eG*e[5mC]*eA*eG*eG*eG*eT*eT*e[5mC]*eA*eT*eG*e[5mC])	1.4	–	–	–	–
CO-6442: ASO designed to target an intragenic enhancer RNA (eRNA) (e[5mC]*eT*eG*eG*eG*eA*eG*e[5mC]*e[5mC]*eT*eG*eG*e[5mC]*eT*eG*eA*eT*eG*e[5mC]*eA)	1.2	–	–	–	–
CO-6443: ASO designed to target an intragenic enhancer RNA (eRNA) (eG*e[5mC]*e[5mC]*e[5mC]*eT*eG*eA*e[5mC]*eA*e[5mC]*eG*e[5mC]*eA*e[5mC]*e[5mC]*eT*eT*eA*e[5mC]*eA)	1.0	–	–	–	–
CO-6444: ASO designed to target an intragenic enhancer RNA (eRNA) (eT*eG*e[5mC]*e[5mC]*e[5mC]*eA*eA*eT*eG*e[5mC]*e[5mC]*e[5mC]*eA*eA*e[5mC]*eG*eT*eG*eA*eG)	1.0	–	–	–	–
CO-6445: ASO designed to target an intragenic enhancer RNA (eRNA) (eG*eT*eG*eG*eG*eA*eA*eG*eT*eA*eT*eG*eG*e[5mC]*eT*eG*e[5mC]*eT*eG*e[5mC])	1.3	–	–	–	–
CO-6446: ASO designed to target an intragenic enhancer RNA (eRNA) (eT*eG*e[5mC]*eT*eG*eT*eG*eA*eG*e[5mC]*eT*eG*e[5mC]*e[5mC]*e[5mC]*eA*eG*eT*eG*eG)	1.1	–	–	–	–
CO-6447: ASO designed to target an intragenic enhancer RNA (eRNA) (eA*eT*eG*eG*eT*eT*e[5mC]*eT*eA*e[5mC]*e[5mC]*eT*eG*e[5mC]*eT*eG*eT*eG*eA*eG)	1.2	–	–	–	–
CO-6448: ASO designed to target an intragenic enhancer RNA (eRNA) (eT*e[5mC]*e[5mC]*e[5mC]*eG*eG*eT*eG*e[5mC]*e[5mC]*e[5mC]*eT*eG*eA*eT*eG*eG*eT*eT*e[5mC])	1.1	–	–	–	–
CO-6449: ASO designed to target an intragenic enhancer RNA (eRNA) (eG*eT*e[5mC]*e[5mC]*eA*eG*e[5mC]*eT*e[5mC]*eG*eG*eT*e[5mC]*eA*eT*eG*eT*eG*eT*e[5mC])	1.1	–	–	–	–
CO-6450: ASO designed to target an intragenic enhancer RNA (eRNA) (e[5mC]*eA*eG*eT*eG*eG*e[5mC]*e[5mC]*eT*eT*eG*eT*e[5mC]*e[5mC]*eA*eG*e[5mC]*eT*e[5mC]*eG)	0.9	–	–	–	–
CO-6451: ASO designed to target an intragenic enhancer RNA (eRNA) (eA*e[5mC]*eG*eT*eT*eT*eG*e[5mC]*eT*e[5mC]*e[5mC]*eT*e[5mC]*eT*eT*e[5mC]*e[5mC]*eA*eG*eT)	1.0	–	–	–	–
CO-6452: ASO designed to target an intragenic enhancer RNA (eRNA) (eT*eG*eG*e[5mC]*eT*eG*e[5mC]*e[5mC]*e[5mC]*e[5mC]*eT*e[5mC]*eA*e[5mC]*eG*eT*eT*eT*eG*e[5mC])	1.4	–	–	–	–

Substance	hGRN mRNA FC (GRN mRNA) [FC]	30 nM FC (GRN mRNA) (GRN mRNA) [FC]	60 nM FC (GRN mRNA) (GRN mRNA) [FC]	120 nM FC (GRN mRNA) (GRN mRNA) [FC]	also measured
CO-6453: ASO designed to target an intragenic enhancer RNA (eRNA) (eG*eA*eA*eA*eA*eA*eG*eT*eT*eT*e[5mC]*e[5mC]*eT*e[5mC]*e[5mC]*eA*eT*e[5mC]*e[5mC]*eT)	0.9	–	–	–	–
CO-6454: ASO designed to target an intragenic enhancer RNA (eRNA) (e[5mC]*e[5mC]*eA*eA*eG*eT*eG*eT*eA*eG*eG*eA*eA*eA*eA*eA*eG*eT*eT*eT)	1.0	–	–	–	–
CO-6455: ASO designed to target an intragenic enhancer RNA (eRNA) (e[5mC]*eT*e[5mC]*eA*eT*eT*eG*eA*e[5mC]*eT*e[5mC]*e[5mC]*eA*eA*eG*eT*eG*eT*eA*eG)	0.9	–	–	–	–
CO-6512: ASO based on parent ASO CO-3462 (antisense eT*eA*eGeGeAeGeA*eA*eT*e[5mC]*eG*e[5mC]eT*eT*eT*eG*eG*eG*eA*eG)	–	1.3	1.8	1.3	–
CO-6513: ASO based on parent ASO CO-3462 (antisense eT*eA*eGeGeAeGeAeAeT*e[5mC]*eG*e[5mC]*eT*eT*eT*eG*eG*eG*eA*eG)	–	1.3	2.7	1.8	–
CO-6514: ASO based on parent ASO CO-3462 (antisense eT*eA*eGeGeAeGeAeAeTe[5mC]eG*e[5mC]*eT*eT*eT*eG*eG*eG*eA*eG)	–	1.4	1.9	1.8	–
CO-6515: ASO based on parent ASO CO-3462 (antisense eT*eA*eGeGeAeGeAeAeTe[5mC]eGe[5mC]eT*eT*eT*eG*eG*eG*eA*eG)	–	1.2	1.8	1.7	–
CO-6516: ASO based on parent ASO CO-3462 (antisense eT*eA*eGeGeAeGeAeAeTe[5mC]eGe[5mC]eTeTeT*eG*eG*eG*eA*eG)	–	1.0	1.4	1.0	–
CO-6517: ASO based on parent ASO CO-3462 (antisense eT*eA*eGeGeAeGeAeAeTe[5mC]eGe[5mC]eTeTeTeGeG*eG*eA*eG)	–	1.2	2.3	2.0	–
CO-6518: ASO based on parent ASO CO-3462 (antisense eT*eA*eG*eGeAeGeAeAeTe[5mC]eGe[5mC]eTeTeTeGeGeG*eA*eG)	–	1.2	1.3	0.9	–
CO-6519: ASO based on parent ASO CO-3462 (antisense eT*eA*eG*eG*eA*eGeAeAeTe[5mC]eGe[5mC]eTeTeTeGeGeG*eA*eG)	–	1.1	1.0	0.9	–
CO-6520: ASO based on parent ASO CO-3462 (antisense eT*eA*eG*eG*eA*eG*eA*eAeTe[5mC]eGe[5mC]eTeTeTeGeGeG*eA*eG)	–	1.0	1.2	0.8	–
CO-6521: ASO based on parent ASO CO-3462 (antisense eT*eA*eG*eG*eA*eG*eA*eA*eT*e[5mC]eGe[5mC]eTeTeTeGeGeG*eA*eG)	–	1.1	1.2	1.1	–
CO-6522: ASO based on parent ASO CO-3462 (antisense eT*eA*eG*eG*eA*eG*eA*eA*eT*e[5mC]*eG*e[5mC]eTeTeTeGeGeG*eA*eG)	–	1.1	1.0	1.1	–
CO-6523: ASO based on parent ASO CO-3462 (antisense eT*eA*eG*eG*eA*eG*eA*eA*eT*e[5mC]*eG*e[5mC]*eT*eTeTeGeGeG*eA*eG)	–	2.9	1.4	1.3	–
CO-8877: hGRN regRNA-targeting ASO with additional chemical modifications (antisense eT*eA*lG*e[5mC]*eA*dA*dA*d[5mC]*dT*d[5mC]*d[5mC]*d[5mC]*d[5mC]*d[5mC]*dA*eG*eG*l[5mC]*eG*e[5mC])	–	–	–	–	GRN mRNA expression in SK-N-AS cells (GRN mRNA; 3.75 to 90 nM, 48 hours post-transfection, normalized to sNTC (FIGS. 26A, 26B)): dose-dependent increase

Reference: US20250243488A1, “METHODS OF MODULATING PROGRANULIN EXPRESSION USING ANTISENSE OLIGONUCLEOTIDES TARGETING REGULATORY RNAS” (Camp4 Therapeutics Corporation, priority 2022, published 2025)
